# Measurements as given in patent US20240300923A1, “IRAK4 Inhibitors” (ASTRAZENECA AB, priority 2022, published 2024).
# Columns and labels:
# IRAK4 [1] = biological target: T1, IRAK4 (Homo sapiens (Human), UniProt Q9NWZ3); assay: IRAK4 enzyme assay (mass spectrometry readout); type: biochemical; details: human recombinant IRAK4 0.2 nM, 3 mM ATP; geometric mean of at least 2 experiments
# Description: Potency of IRAK4 Inhibitor Compounds in IRAK4 Enzyme Assay
# The inhibitory activity of compounds against IRAK4 were determined in an enzymatic assay using mass spectrometry readout. Ten point half-log compound concentration response curves, with a top concentration of 1 μM or 10 μM, were generated from 10 mM stocks of compound solubilized in DMSO using an Echo 655 (Labcyte Inc) and added to 384 well assay plates (Greiner #781280). To the assay plates, 10 μL of human recombinant IRAK4 protein (Life Technologies #PV4002) diluted to a final concentration of 0.2 nM in assay buffer (50 mM Tris-HCl pH 7.4, 10 mM MgCl, 5 mM glutathione, 0.01% BSA, 3 mM ATP) was added. The enzyme was incubated with the compounds at room temperature for 15 minutes before a peptide substrate ([…], Innovagen custom synthesis, 10 mM in DMSO) was added to each well to a final concentration of 10 μM using an Echo 655 (Labcyte Inc). After two hours at room temperature, the reaction was stopped with 65 μL of 0.4% formic acid (Merck #33015). The unphosphorylated and phosphorylated peptide were measured by LC-MS/MS on a Waters TQ-S mass spectrometer. Peaks were integrated using the TargetLynx software and the ratios between phosphorylated and unphosphorylated peptides were calculated. Curves were fitted and compound potencies determined in Genedata Screener 19 (Genedata AG). IC50 values are the geometric mean of at least 2 experiments.
# IRAK4 [2] = biological target: T1, IRAK4; assay: IRAK4 phosphorylation cell assay (IL-1β-stimulated Karpas-299 cells); type: cell-based; details: IRAK4 auto-phosphorylation (pIRAK4 Thr345/Ser346) in IL-1β-stimulated Karpas-299 cells; geometric mean of at least 2 experiments
# Description: IRAK4 Phosphorylation Cell Assay
# The activation of IRAK4 by TLR or IL-1R ligands leads to IRAK4 auto-phosphorylation, which can be prevented by IRAK4 kinase inhibitors. The effect of IRAK4 inhibitor compounds on IRAK4 auto-phosphorylation was assessed in IL-1β-stimulated Karpas-299 cells as a measurement of cellular potency. Karpas-299 cells were cultured in RPMI 1640 (Gibco 61870-010) containing 10% FBS (Gibco #10270). Cells were plated at 2×10^4 cells per well in poly-D-lysine coated 384 well plates (Corning #356663) to which compounds had been added at various concentrations (10 point half log dose response with a final top concentration of 30 μM) using an Echo 655 (Labcyte Inc). Cells were centrifuged (250 g, 4 mins), incubated at 37° C. for 1 h, then stimulated with 22.7 ng/mL recombinant IL-1β (R&D Systems, #201-LB-025) at 37° C. for 10 mins, followed by fixation in 4% paraformaldehyde for 20 mins and permeabilization in ice-cold 70% MeOH in PBS for 30 mins. Cells were washed twice with phosphate-buffered saline (PBS) on a BlueWasher (BlueCatBio) then blocked with PBS containing 10% FBS for 20 mins. Blocking solution was removed with a BlueWasher and cells were stained with anti-pIRAK4 (Thr345/Ser346) (CST, #11927, 1:400) in blocking buffer with 0.05% Tween-20 for 1 h, then washed twice with PBS containing 0.05% Tween-20 on a BlueWasher, followed by staining with a Alexa 647-conjugated secondary anti-rabbit IgG antibody (CST, #4414, 1:2,000) and Hoechst 33342 (Sigma, 1:2,000) in blocking buffer with 0.05% Tween-20 for 30 mins. Finally, the cells were washed twice with PBS containing 0.05% Tween-20 and imaged on an ImageXpress Micro (Molecular Devices) with a 10× air objective using the appropriate filters. Images were analysed in Columbus (PerkinElmer) and the fluorescence intensity per cell from the secondary antibody was quantified. The quantified data were analysed in Genedata Screener 19 (Genedata AG). […] IC50 values are the geometric mean of at least 2 experiments.
# human cKit kinase = human cKit kinase (Homo sapiens (Human), UniProt P10721); assay: cKit enzyme assay (LANCE, Eurofins CEREP); type: biochemical; details: human recombinant enzyme, 50 μM ATP; geometric mean of at least n=2, * = single experiment
# Chain of human cKit kinase (P10721 26-976): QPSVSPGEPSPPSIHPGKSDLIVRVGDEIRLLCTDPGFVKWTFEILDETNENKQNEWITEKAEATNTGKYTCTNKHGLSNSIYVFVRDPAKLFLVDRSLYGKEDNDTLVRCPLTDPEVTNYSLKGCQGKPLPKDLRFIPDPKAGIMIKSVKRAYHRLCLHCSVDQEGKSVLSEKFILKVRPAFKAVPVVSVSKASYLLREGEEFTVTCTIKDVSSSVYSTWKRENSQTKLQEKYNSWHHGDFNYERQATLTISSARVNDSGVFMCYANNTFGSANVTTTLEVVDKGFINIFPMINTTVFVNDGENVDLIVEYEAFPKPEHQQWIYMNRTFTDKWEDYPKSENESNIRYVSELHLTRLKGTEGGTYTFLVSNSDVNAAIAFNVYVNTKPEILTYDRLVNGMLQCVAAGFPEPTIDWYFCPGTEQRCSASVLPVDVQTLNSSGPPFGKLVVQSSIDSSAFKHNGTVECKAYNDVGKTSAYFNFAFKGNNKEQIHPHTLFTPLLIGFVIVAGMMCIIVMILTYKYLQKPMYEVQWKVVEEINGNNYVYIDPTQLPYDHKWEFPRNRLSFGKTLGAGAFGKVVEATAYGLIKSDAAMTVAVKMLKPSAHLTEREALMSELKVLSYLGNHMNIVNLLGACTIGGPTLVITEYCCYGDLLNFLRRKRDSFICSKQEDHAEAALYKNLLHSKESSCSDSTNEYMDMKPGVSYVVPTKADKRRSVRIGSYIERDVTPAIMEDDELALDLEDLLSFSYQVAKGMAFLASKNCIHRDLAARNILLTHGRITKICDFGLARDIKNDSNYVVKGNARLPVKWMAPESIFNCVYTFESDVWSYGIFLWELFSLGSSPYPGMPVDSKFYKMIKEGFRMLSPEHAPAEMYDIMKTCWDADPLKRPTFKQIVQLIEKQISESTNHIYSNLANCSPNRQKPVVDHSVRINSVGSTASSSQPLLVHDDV
# Description: Potency of IRAK4 Inhibitor Compounds in cKit Enzyme Assay
# Evaluation of the effects of the IRAK4 inhibitor compounds on the activity of the human cKit kinase quantified by measuring the phosphorylation of the substrate Ulight-TK peptide using a human recombinant enzyme and the LANCE® detection method at Eurofins CEREP, catalog item 3070, SOP no 1C768: The test compound, reference compound or water (control) are mixed with the enzyme (0.38 ng) in a buffer containing 40 mM Hepes/Tris (pH 7.4), 0.8 mM EGTA/Tris, 8 mM MgCl2, 1.6 mM DTT and 0.008% Tween 20. Thereafter, the reaction is initiated by adding 100 nM of the substrate Ulight-TK peptide and 50 μM ATP, and the mixture is incubated for 30 min at room temperature. For control basal measurements, the enzyme is omitted from the reaction mixture. Following incubation, the reaction is stopped by adding 13 mM EDTA. After 5 min, the anti-phopho-PT66 antibody labeled with europium chelate is added. After 60 more min, the fluorescence transfer is measured at lex=337 nm, lem=620 nm and lem=665 nm using a microplate reader (Envision, Perkin Elmer). The enzyme activity is determined by dividing the signal measured at 665 nm by that measured at 620 nm (ratio). The results are expressed as a percent inhibition of the control enzyme activity. The standard inhibitory reference compound is staurosporine, which is tested in each experiment at several concentrations to obtain an inhibition curve from which its IC50 value is calculated.
# Data presented are the geometric mean of at least n=2, or as denoted by an*are obtained from a single experiment. […] Kinase selectivity can be a key determinant of clinical utility as off target toxicity can be reduced or eliminated.
# T1 sequence (Q9NWZ3 whole entry): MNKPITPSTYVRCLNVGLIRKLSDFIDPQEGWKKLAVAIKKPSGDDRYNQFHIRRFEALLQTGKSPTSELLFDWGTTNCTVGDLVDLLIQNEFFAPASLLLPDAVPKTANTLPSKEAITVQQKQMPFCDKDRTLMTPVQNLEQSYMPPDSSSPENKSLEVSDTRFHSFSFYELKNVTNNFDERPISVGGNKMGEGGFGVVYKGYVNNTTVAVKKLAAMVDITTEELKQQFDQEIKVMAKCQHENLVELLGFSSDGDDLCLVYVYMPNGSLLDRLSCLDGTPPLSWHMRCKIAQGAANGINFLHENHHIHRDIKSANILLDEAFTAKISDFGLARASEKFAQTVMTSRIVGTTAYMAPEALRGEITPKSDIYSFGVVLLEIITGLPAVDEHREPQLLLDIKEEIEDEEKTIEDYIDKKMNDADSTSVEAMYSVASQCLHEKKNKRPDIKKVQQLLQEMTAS
IC50 (IRAK4 [1]) [nM],IC50 (IRAK4 [2]) [nM],IC50 (human cKit kinase) [nM],Compound
1.1,30,13000,"COc1cc2nn([C@H]3CC[C@H](N(C)C(C)=O)CC3)cc2cc1C(=O)Nc1cccn(C)c1=O [Example 1, 6-Methoxy-N-(1-methyl-2-oxo-1,2-dihydropyridin-3-yl)-2-((1r,4r)-4-(N-methylacetamido)cyclohexyl)-2H-indazole-5-carboxamide]"
0.9,35,2700,"COc1cc2nn([C@H]3CC[C@H](N(C)C(=O)[C@@H](C)O)CC3)cc2cc1C(=O)Nc1cccn(-c2cnn(C)c2)c1=O [Example 15, 2-((1R,4r)-4-((R)-2-Hydroxy-N-methylpropanamido)cyclohexyl)-6-methoxy-N-(1-(1-methyl-1H-pyrazol-4-yl)-2-oxo-1,2-dihydropyridin-3-yl)-2H-indazole-5-carboxamide]"
0.7,30,> 50000,"COc1cc2nn([C@H]3CC[C@H](N(C)C(=O)[C@@H](C)O)CC3)cc2cc1C(=O)Nc1cccn(C2COC2)c1=O [Example 13, 2-((1R,4r)-4-((R)-2-Hydroxy-N-methylpropanamido)cyclohexyl)-6-methoxy-N-(1-(oxetan-3-yl)-2-oxo-1,2-dihydropyridin-3-yl)-2H-indazole-5-carboxamide]"
0.4,15,3300,"COc1cc2nn([C@H]3CC[C@H](N(C)C(=O)[C@@H](C)O)CC3)cc2cc1C(=O)Nc1cccn(CF)c1=O [Example 9, N-(1-(Fluoromethyl)-2-oxo-1,2-dihydropyridin-3-yl)-2-((1R,4r)-4-((R)-2-hydroxy-N-methylpropanamido)cyclohexyl)-6-methoxy-2H-indazole-5-carboxamide]"
3.9,67,18300,"COc1cc2nn([C@@H]3CC[C@@H](N(C)C(C)=O)C[C@@H]3C)cc2cc1C(=O)Nc1cccn(C)c1=O [Example 4, 6-Methoxy-N-(1-methyl-2-oxo-1,2-dihydropyridin-3-yl)-2-((1R,2S,4R)-2-methyl-4-(N-methylacetamido)cyclohexyl)-2H-indazole-5-carboxamide]"
1,22,6900,"COc1cc2nn([C@H]3CC[C@H](n4cc(C(C)(C)O)nn4)CC3)cc2cc1C(=O)Nc1cccn(C)c1=O [Example 30, 2-((1r,4r)-4-(4-(2-Hydroxypropan-2-yl)-1H-1,2,3-triazol-1-yl)cyclohexyl)-6-methoxy-N-(1-methyl-2-oxo-1,2-dihydropyridin-3-yl)-2H-indazole-5-carboxamide]"
0.7,21,13700,"COc1cc2nn([C@@H]3CCC(N(C)C(C)=O)C[C@H]3C)cc2cc1C(=O)Nc1cccn(C)c1=O (single isomer, unassigned) [Example 3]"
1.7,45,> 100000,"COc1cc2nn([C@H]3CC[C@H](c4nnco4)CC3)cc2cc1C(=O)Nc1cccn(C)c1=O [Example 25, 2-((1r,4r)-4-(1,3,4-Oxadiazol-2-yl)cyclohexyl)-6-methoxy-N-(1-methyl-2-oxo-1,2-dihydropyridin-3-yl)-2H-indazole-5-carboxamide]"
0.8,24,> 40000,"COc1cc2nn([C@H]3CC[C@H](N(C)C(C)=O)C[C@H]3C)cc2cc1C(=O)Nc1cccn(C)c1=O [Example 5, 6-Methoxy-N-(1-methyl-2-oxo-1,2-dihydropyridin-3-yl)-2-((1S,2R,4S)-2-methyl-4-(N-methylacetamido)cyclohexyl)-2H-indazole-5-carboxamide]"
0.9,23,36300,"COc1cc2nn([C@H]3CC[C@H](N(C)C(=O)[C@H](C)O)CC3)cc2cc1C(=O)Nc1cccn(C2CC2)c1=O [Example 11, N-(1-Cyclopropyl-2-oxo-1,2-dihydropyridin-3-yl)-2-((1S,4r)-4-((S)-2-hydroxy-N-methylpropanamido)cyclohexyl)-6-methoxy-2H-indazole-5-carboxamide]"
0.8,29,7000,"COc1cc2nn([C@H]3CC[C@H](N(C)C(=O)[C@@H](C)O)CC3)cc2cc1C(=O)Nc1cccn(C)c1=O [Example 8, 2-((1R,4r)-4-((R)-2-Hydroxy-N-methylpropanamido)cyclohexyl)-6-methoxy-N-(1-methyl-2-oxo-1,2-dihydropyridin-3-yl)-2H-indazole-5-carboxamide]"
459,4500,,"COc1cc2nn([C@@H]3CC[C@H](N(C)C(C)=O)C[C@@H]3C)cc2cc1C(=O)Nc1cccn(C)c1=O (single isomer, unassigned) [Example 7]"
0.3,15,,"COc1cc2nn([C@H]3CC[C@H](N(C)C(=O)[C@@H](C)O)CC3)cc2cc1C(=O)Nc1cccn(-c2cn[nH]c2)c1=O [Example 14, 2-((1R,4r)-4-((R)-2-Hydroxy-N-methylpropanamido)cyclohexyl)-6-methoxy-N-(2-oxo-1-(1H-pyrazol-4-yl)-1,2-dihydropyridin-3-yl)-2H-indazole-5-carboxamide]"
5,185,,"COc1cc2nn(C3CCC(c4cccnn4)CC3)cc2cc1C(=O)Nc1cccn(C)c1=O (single isomer, unassigned) [Example 23, 6-Methoxy-N-(1-methyl-2-oxo-1,2-dihydropyridin-3-yl)-2-(4-(pyridazin-3-yl)cyclohexyl)-2H-indazole-5-carboxamide]"
199,2880,,"COc1cc2nn([C@@H]3CC[C@H](N(C)C(C)=O)C[C@@H]3C)cc2cc1C(=O)Nc1cccn(C)c1=O (single isomer, unassigned) [Example 6]"
10.7,238,,"COc1cc2nn([C@@H]3CCC(N(C)C(C)=O)C[C@H]3C)cc2cc1C(=O)Nc1cccn(C)c1=O (single isomer, unassigned) [Example 2]"
0.4,20,,"COc1cc2nn([C@H]3CC[C@]4(CC3)COC(=O)N4C)cc2cc1C(=O)Nc1cccn(C)c1=O [Example 21, 6-Methoxy-N-(1-methyl-2-oxo-1,2-dihydropyridin-3-yl)-2-((5r,8r)-1-methyl-2-oxo-3-oxa-1-azaspiro[4.5]decan-8-yl)-2H-indazole-5-carboxamide]"
